{"source": "patent US20090016973A1", "about": "“Composition and Method for the Prevention of Oral Disease” (MICROPURE, INC., priority 2007, published 2009)", "origin": "cited, not measured here", "key": {"protein synthesis [1]": {"test_system": "protein synthesis", "conditions": "Roller et al., 1986"}, "Escherichia coli": {"test_system": "Escherichia coli", "conditions": "Berg et al., 1986; leading to cell death"}, "dehydrogenase enzymes": {"test_system": "dehydrogenase enzymes", "conditions": "within the first 5 seconds of reaction; Roller et al., 1986"}, "protein synthesis [2]": {"test_system": "protein synthesis", "conditions": "Benarde et al., 1967"}}, "data": [{"compound": "[O][Cl+][O-]", "note": "[chlorine dioxide]", "values": [{"measurement": "inhibition of protein synthesis", "setting": "protein synthesis [1]", "result": "partially inhibited"}, {"measurement": "permeability control of the membrane", "setting": "Escherichia coli", "result": "impaired"}, {"measurement": "inhibition of total dehydrogenase enzymes", "setting": "dehydrogenase enzymes", "result": "inhibited completely"}, {"measurement": "effect on protein synthesis", "setting": "protein synthesis [2]", "result": "abrupt inhibition"}]}]}
